{
  "source": "patent US20160166637A1",
  "about": "“METHODS OF TREATING A CANCER THROUGH TARGETED DISRUPTION OF ALPHA CONNEXIN 43-ZONULA OCCLUDENS-1 (ZO-1) INTERACTION” (Virginia Tech Intellectual Properties, Inc., priority 2013, published 2016)",
  "key": {"[1]": {"conditions": "taken orally; cited from earlier work"}, "GBM cells": {"tested_on": "GBM cells", "conditions": "cited from earlier work"}, "[2]": {"conditions": "in vivo; cited from earlier work"}, "U87MG glioma cells": {"tested_on": "U87MG glioma cells", "test": "Cell aggregation assay, aggregation index (AI)", "format": "cell-based, human", "conditions": "25 μM, 48 hours, serum-free", "method": "UM87MG glioma cells, which express Cx43, were cultured in serum-free conditions permissive to aggregation. The cells were treated with the ACT-1 peptide for 48 hours and then imaged with phase-contrast microscopy. […] To quantitate the extent of aggregation, ImageJ software was used to collect size information about the aggregates in these images and from that information an aggregation index was calculated for each image. The AI is defined as the total area of aggregation in a field divided by the number of single, unaggregated cells in that field. So an increase in the ratio of aggregation area to unaggregated cells would increase the AI and indicate a higher propensity to aggregate."}, "wild-type C6 cells": {"tested_on": "wild-type C6 cells", "test": "Boyden chamber motility assay (Example 4) on wild-type cells", "format": "cell-based", "conditions": "both concentrations of ACT-1 (1 μM, 25 μM)", "method": "(§1) In this example, peptides were added after cells were incubated in serum-free media, then 24 hours of pre-treatment was allowed in the serum-free conditions, and finally the cells were transferred, without typsinizing, to Boyden chamber and incubated for 4 hours. […] With this example, the results of the C6 cells seemed to be similar to wt-C6 cells.\nThe same situation was true when the same experiment was performed on wild-type C6 cells."}, "U87 glioma cells": {"tested_on": "U87 glioma cells", "test": "Boyden chamber motility assay (Example 3)", "format": "cell-based, human", "conditions": "overnight pre-treatment in 10% serum, 4 hour incubation; vs no treatment and control peptide", "method": "After an overnight peptide pre-treatment in 10% serum, two glioma cell lines, c6 and U87, were seeded in serum-free media containing peptides into Boyden chamber transwell inserts with 8 μm pores in the membrane and then filled the bottom wells with media containing 10% FBS as a chemoattractant. […] Then the migrated cells were fixed, stained with Hoescht dye, and imaged on an epifluorescence microscope."}, "Cx43 CT": {"target": "T1, Cx43 CT (Homo sapiens, UniProt P17302)", "T1 construct": "EDAC cross-linking reaction of ACT-1 and connectin 43 carboxy terminal peptide", "T1 sequence (P17302 229-382 limits assumed)": "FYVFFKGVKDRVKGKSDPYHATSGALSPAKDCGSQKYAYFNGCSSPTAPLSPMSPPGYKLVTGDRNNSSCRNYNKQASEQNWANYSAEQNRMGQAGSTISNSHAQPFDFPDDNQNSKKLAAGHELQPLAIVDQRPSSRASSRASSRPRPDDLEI", "test": "EDAC cross-linking of ACT-1 and Cx43 carboxy terminal peptide (polyacrylamide gel)", "format": "binding", "source_text": "FIG. 6 is an image of a polyacrylamide gel showing EDAC cross-linking of ACT-1 and Cx43-CT.\nFIG. 6 is an image of a polyacrylamide gel showing EDAC cross-linking reaction of ACT-1 and connectin 43 carboxy terminal peptide. […] ACT-1 is shown by the zero order cross-linker EDAC."}, "[3]": {"tested_on": "C6 cells stably expressing Cx43", "test": "Boyden chamber motility assay (Example 4, serum-free pre-treatment)", "format": "cell-based", "conditions": "both concentrations of ACT-1 (1 μM, 25 μM); 24 hours serum-free pre-treatment, 4 hours", "method": "FIGS. 10A-10C are images of a motility experiment using C6 cells stably expressing Cx43 showing no treatment (FIG. 10A), 25 μM reverse sequence peptide (control peptide) (FIG. 10B) and 25 μM ACT-1 (FIG. 10C).\nFIG. 10D is a graph showing the results of the motility experiment using C6 cells stably expressing Cx43 showing no treatment, 1 μM ACT-1, 25 μM ACT-1, 1 μM reverse sequence peptide (control peptide), and 25 μM reverse sequence peptide (control peptide).\nas §1"}, "[4]": {"tested_on": "Cx-deficient C6 glioma cell line", "test": "Cell aggregation assay on Cx-deficient cells", "format": "cell-based", "conditions": "1 μM and 25 μM compared"}, "GS9-6 glioma stem cells": {"tested_on": "GS9-6 glioma stem cells", "test": "Sphere/colony formation assay (self-renewal)", "format": "cell-based, human", "conditions": "FIG. 15", "source_text": "To further investigate the effect of ACT-1 on glioma stem cells, the present inventors measured the capacity of glioma stem cells to self-renew. The unique feature that makes glioma stem cells different from other glioma cells is that glioma stem cells are able to copy themselves (termed as self-renewal). The well-established approach to measure self-renewal of stem cells is sphere/colony formation assay. The self-renewal of GS9-6 glioma stem cells treated with ACT-1 was then monitored. […] Two different doses of ACT-1 and TMZ were tested. Both treatments inhibited the self-renewal of GS9-6 (FIGS. 16 and 17). Thus, the data strongly indicate that ACT-1 sensitizes glioblastoma cells to TMZ."}, "LN229/GSCs": {"tested_on": "LN229/GSCs", "test": "Glioma xenograft mouse model, tumor growth", "format": "in vivo, mice", "conditions": "200 μM/tumor ACT-1, 100 mg/kg TMZ", "source_text": "To further validate the therapeutic effect of ACT-1 in vivo, tumor growth was monitored using a glioma xenograft mouse model. As GS9-6 cells grow slowly in mice, the present inventors elected to use LN229/GSCs, isolated from LN229 human GBM cell line. […] LN229/GSCs were first injected into the flanks of immunocompromised mice and tumors (more than 100 mm3) were detected in all mice in 14 days. By contrast, GS9-6 cells form a tumor in 6 months (data not shown). Treatments at day 14 were then started. First, 100 mg/kg ACT-1 was injected subcutaneously. 24 hours later, mice were treated with 7.5 mg/kg TMZ (dissolved in DMSO) or vehicle DMSO intraperitoneally. Such treatment regime was repeated three times a week for three weeks, and tumor growth was monitored for another week. […] Taken together, these examples provide a firm support for potential clinical application of ACT-1 in treating human or canine glioblastoma patients.\nFIG. 21 is a plot of tumor volume over 53 days for untreated, 200 μM/tumor ACT-1, 100 mg/kg TMZ treated, and combinatorial 200 μM/tumor ACT-1 and 100 mg/kg TMZ treated mice. FIG. 22 is a graph of tumor volumes at 53 days and FIG. 23 is an image of tumor volumes at 53 days for these treatments."}, "GS9-6 cells": {"tested_on": "GS9-6 cells", "test": "Viability of glioma stem cell line", "format": "cell-based, human", "conditions": "alone or in combination", "method": "FIG. 13 is a graph showing the effects of ACT-1 treatment at concentrations from 30 to 120 μM on the viability of the glial stem cell (GSC) line GS9-6 with or without temozolomide.\nThe ACT-1 peptide was tested on a glioma stem cell (GSC) line alone or in combination with temozolomide (TMZ)."}, "Cx43 CT domain": {"target": "Cx43 CT domain (Homo sapiens, UniProt P17302)", "sequence (P17302 229-382 limits assumed)": "as above", "test": "Dot blot binding of biotinylated AAP10 peptides to Cx43 CT", "conditions": "biotinylated peptide, 500-1 ng", "source_text": "FIG. 5 is an image showing the results of a dot blot assay for testing binding of AAP10 and AAP10-pTyr with Connexin43-carboxy terminus (CT).\nBy contrast, the tyrosine phosphorylated isoform biotinylated AAP10-pTyr show no affinity for Cx43 CT."}, "[5]": {"conditions": "phase I, brain cancer patients; cited from earlier work"}},
  "data": [
    {"compound": "C[C@H]1c2cccc(O)c2C(=O)C2=C(O)[C@]3(O)C(=O)C(C(N)=O)=C(O)[C@@H](N(C)C)[C@@H]3[C@@H](O)[C@@H]21", "note": "[Doxycycline]", "values": [
      {"measurement": "CSF to serum ratio", "setting": "[1]", "result": "~0.26"}
    ]},
    {"compound": "CC#C[C@]1(O)CC[C@H]2[C@@H]3CCC4=CC(=O)CCC4=C3[C@@H](c3ccc(N(C)C)cc3)C[C@@]21C", "note": "[mifepristone]", "values": [
      {"measurement": "sensitization of GBM cells to TMZ", "setting": "GBM cells", "result": "sensitizes GBM cells to TMZ"}
    ]},
    {"compound": "ACT-1: SEQ ID NO:9: Antennapedia sequence RQPKIWFPNRRKPWKK linked to Cx43 c-terminal 9 amino acids RPRPDDLEI (RQPKIWFPNRRKPWKKRPRPDDLEI)", "values": [
      {"measurement": "half-life in the body", "setting": "[2]", "result": "less than a few hours"},
      {"measurement": "formation of amorphous clumps (phase-contrast images)", "setting": "U87MG glioma cells", "result": "tended to form amorphous clumps"},
      {"measurement": "aggregation index (AI)", "setting": "U87MG glioma cells; Bonferroni t-test", "result": "significantly higher AIs relative to controls"},
      {"measurement": "decrease in motility across the Boyden chamber", "setting": "wild-type C6 cells", "result": "~5", "unit": "×"},
      {"measurement": "cell migration across the Boyden chamber membrane", "setting": "U87 glioma cells", "result": "significant decrease in cell migration"},
      {"measurement": "effect of binding on Cx43 CT homodimers", "setting": "Cx43 CT; EDAC cross-linking", "result": "reduces Cx43 CT homodimers"},
      {"measurement": "interaction with the Cx43 CT (EDAC cross-linking)", "setting": "Cx43 CT; zero order cross-linker EDAC", "result": "interacts with the Cx43 CT"},
      {"measurement": "decrease in migration", "setting": "[3]", "result": 5, "unit": "×"},
      {"measurement": "aggregation versus controls", "setting": "[4]", "result": "no significant difference in aggregation"},
      {"measurement": "self-renewal of GS9-6 cells", "setting": "GS9-6 glioma stem cells", "result": "not affected"},
      {"measurement": "tumor volume at 53 days", "setting": "LN229/GSCs", "result": "may promote tumor growth"},
      {"measurement": "viability of GS9-6 cells", "setting": "GS9-6 cells", "result": "only mildly reduced the viability"}
    ]},
    {"compound": "antiarrhythmic peptide 10 [AAP10]", "values": [
      {"measurement": "affinity for the Cx43 CT domain in a dot blot", "setting": "Cx43 CT domain", "result": "concentration dependent affinity"}
    ]},
    {"compound": "cintredekin besudotox", "values": [
      {"measurement": "adverse effects", "setting": "[5]", "result": "no significant adverse effects were observed"}
    ]}
  ]
}
